{"source": "patent US20250052744A1", "about": "“Dyes and Uses Thereof” (The University of Liverpool, priority 2021, published 2025)", "test_in_all_cases": "Qualitative dye staining on agarose pads (EVOS M7000)", "assay_type_in_all_cases": "cell-based", "parameters_in_all_cases": "key to Relative fluorescent intensity: Very high: If the cells looked twice as big in the fluorescent channel, it was marked as having “very high” relative fluorescent intensity; High: if the cells looked bigger in the fluorescent channel, it was marked as having “high” relative fluorescent intensity; Medium: If the cells looked almost the same size in the fluorescent channel and the bright field, it was marked as having “medium” relative fluorescent intensity; Low: If the cells looked smaller in the fluorescent channel as compared to the brightfield but still the whole cell was visible, it was marked as having “low” relative fluorescent intensity; Negligible: If only a few traces of a cell was visible in the fluorescent channel, it was marked as having “negligible” relative fluorescent intensity", "key": {"[1]": {"tested_on": "Staphylococcus aureus", "details": "DiSC3(5) 3 μM, SYBR Green I 10×, SYTO 13 3 μM, FM4-64 15 μM", "experimental": "(§1) An overnight culture was prepared by inoculating a bacterial colony in approximately 5 ml of Urine and incubating the culture in an orbital shaker at 37° C.\n(§2) The following media and materials were utilised: Cation-adjusted Mueller Hinton broth (MHB); Phosphate Buffered Saline (PBS); Membrane staining dye—FM4-64 (1.5 mM); Live cell staining dye—DiSC3(5) (1 mM); DNA staining dye—SYBR Green (1000×); DNA staining dye—SYTO 13 (0.5 mM); Ultrapure Agarose; Parafilm; Glass slides and coverslips; Scalpel; and EVOS M7000 fluorescent microscope.\n(§3) A pre-cut parafilm or a coverslip was used as a guide and 22 mm×22 mm squares cut from parafilm. A square was cut out of the centre of the parafilm (approximately 10 mm×10 mm). The centre of the cut-out was discarded. Two parafilm gaskets were placed onto a cleaned glass slide. The glass slide was then placed on a dry bath set to 56° C. so that the parafilm adhered to the glass slide. The glass slide was then kept on the dry bath. Using a microwave, ultrapure agarose was dissolved in PBS at a concentration of 1.2%. The agarose solution was kept on a dry bath set at 56° C. 60 μl of the agarose solution was pipetted in the centre of the parafilm gaskets. A coverslip was then placed over the gaskets without applying pressure on the coverslip. The slide was then placed on a cool surface and left to solidify for 1-2 minutes. The coverslips were then gently lifted off the agarose pads.\n(§4) In a first Eppendorf, 15 μl of FM4-64 and 6 μl of SYTO 13 was added and in a second Eppendorf 10 μl of SYBR Green and 3 μl of DiSC3(5) was added. Depending on the bacterial growth in urine, an appropriate concentration of the bacterial culture was placed in the two Eppendorfs (final bacterial concentration 10^6 CFU/ml). MHB was added so as to achieve a final volume of 1 ml. Final concentrations of the dyes in the sample was as follows: DiSC3(5): 3 μM; SYBR Green I: 10× (originally supplied as 10,000×); SYTO 13: 3 μM; and FM4-64: 15 μM\n(§5) 4 μl of the contents of each Eppendorf were deposited on one agarose pad and the cells distributed across the agar surface by tilting the slide. The slide was left to dry for approximately 1 minute. A coverslip was then placed on top of the agarose pad. The slide was placed inside the microscope and incubated at 37° C. for 10 minutes. Using different light filters for each dye, an image of each pad at 40× magnification on an EVOS M7000 fluorescent microscope was captured. Eight images for each agarose pad was recorded (i.e. 8 each for brightfield and 2 fluorescent channels). For each agarose pad, 24 images were recorded. This corresponded to 48 images in total for each bacterial strain (2 agarose pads per strain). Table A below was used to take the images using the correct fluorescent channel and intensity (for imagining on any other instrument, the LED intensity will need to be normalised against the EVOS M7000).\n(§6) To qualitatively calculate the relative fluorescent intensities, cell size was compared between brightfield and the fluorescent channel for a given fluorescent dye. If the cells are very fluorescent, they will appear bigger in the fluorescent channel as compared to the bright field. For our qualitative measurements, if the cells looked bigger in the fluorescent channel, it was marked as having “high” relative fluorescent intensity. If the cells looked twice as big in the fluorescent channel, it was marked as having “very high” relative fluorescent intensity. If the cells looked almost the same size in the fluorescent channel and the bright field, it was marked as having “medium” relative fluorescent intensity. If the cells looked smaller in the fluorescent channel as compared to the brightfield but still the whole cell was visible, it was marked as having “low” relative fluorescent intensity. If only a few traces of a cell was visible in the fluorescent channel, it was marked as having “negligible” relative fluorescent intensity."}, "[2]": {"tested_on": "Pseudomonas aeruginosa", "details": "DiSC3(5) 3 μM, SYBR Green I 10×, SYTO 13 3 μM, FM4-64 15 μM", "experimental": "as §1, §2, §3, §4, §5, §6"}, "[3]": {"tested_on": "Klebsiella", "details": "Table 6 thresholds, DiSC3(5) 3 μM, SYBR Green I 10×, SYTO 13 3 μM, FM4-64 15 μM", "experimental": "as §1, §2, §3, §4, §5, §6"}, "[4]": {"details": "Table 6 thresholds, Staphylococcus aureus"}, "[5]": {"details": "Table 7 commercial strain S. Aureus NCTC 9369"}, "[6]": {"details": "Table 7 commercial strain S. aureus NCTC 8532"}, "[7]": {"details": "Table 8 sample Staphylococcus aureus (041)"}, "[8]": {"details": "Table 8 sample Staphylococcus aureus (042)"}, "[9]": {"details": "Table 8 sample Staphylococcus aureus (043)"}, "[10]": {"details": "Table 6 thresholds, Pseudomonas aeruginosa"}, "[11]": {"details": "Table 7 commercial strain Pseudomonas aeruginosa NCTC 10332"}, "[12]": {"details": "Table 7 commercial strain Pseudomonas aeruginosa NCTC 13715"}, "[13]": {"details": "Table 8 sample Pseudomonas aeruginosa (031)"}, "[14]": {"details": "Table 8 sample Pseudomonas aeruginosa (032)"}, "[15]": {"details": "Table 8 sample Pseudomonas aeruginosa (033)"}}, "note": "Entries after “also recorded” stand apart in the source; their conditions may differ."}
{"smiles": "CCCN1C(=CC=CC=Cc2sc3ccccc3[n+]2CCC)Sc2ccccc21.[I-]", "note": "[DiSC3(5), 3,3′-Dipropylthiadicarbocyanine Iodide]", "values": [{"measurement": "Percentage of cells stained", "setting": "[1]; [4]", "result": "Almost all"}, {"measurement": "Relative fluorescent intensity", "setting": "[1]; [4]", "result": "high and High"}, {"measurement": "Percentage of cells stained", "setting": "[1]; [5]", "result": "Almost all"}, {"measurement": "Relative fluorescent intensity", "setting": "[1]; [5]", "result": "High"}, {"measurement": "Percentage of cells stained", "setting": "[1]; [6]", "result": "Almost all"}, {"measurement": "Relative fluorescent intensity", "setting": "[1]; [6]", "result": "High"}, {"measurement": "Percentage of cells stained", "setting": "[1]; [7]", "result": "Almost all"}, {"measurement": "Relative fluorescent intensity", "setting": "[1]; [7]", "result": "High"}, {"measurement": "Percentage of cells stained", "setting": "[1]; [8]", "result": "Almost all"}, {"measurement": "Relative fluorescent intensity", "setting": "[1]; [8]", "result": "High"}, {"measurement": "Percentage of cells stained", "setting": "[1]; [9]", "result": "Almost all"}, {"measurement": "Relative fluorescent intensity", "setting": "[1]; [9]", "result": "High"}, {"measurement": "Percentage of cells stained", "setting": "[2]; [10]", "result": "Few"}, {"measurement": "Relative fluorescent intensity", "setting": "[2]; [10]", "result": "no or negligible staining; also recorded: Negligible"}, {"measurement": "Percentage of cells stained", "setting": "[2]; [11]", "result": "Few"}, {"measurement": "Relative fluorescent intensity", "setting": "[2]; [11]", "result": "Negligible"}, {"measurement": "Percentage of cells stained", "setting": "[2]; [12]", "result": "Few"}, {"measurement": "Relative fluorescent intensity", "setting": "[2]; [12]", "result": "Negligible"}, {"measurement": "Percentage of cells stained", "setting": "[2]; [13]", "result": "Few"}, {"measurement": "Relative fluorescent intensity", "setting": "[2]; [13]", "result": "Negligible"}, {"measurement": "Percentage of cells stained", "setting": "[2]; [14]", "result": "Few"}, {"measurement": "Relative fluorescent intensity", "setting": "[2]; [14]", "result": "Negligible"}, {"measurement": "Percentage of cells stained", "setting": "[2]; [15]", "result": "Few"}, {"measurement": "Relative fluorescent intensity", "setting": "[2]; [15]", "result": "Negligible"}, {"measurement": "Percentage of cells stained", "setting": "[3]", "result": "Few"}, {"measurement": "Relative fluorescent intensity", "setting": "[3]", "result": "Low-Medium"}]}
